The target of one experiment is α4β1 (Homo sapiens, UniProt P05556+P13612). In words: α4β1 integrin inhibition, IC50. Format: binding. The conditions noted are these: read-out: α4β1 IC50.
In a further experiment the target is T1, α4β7 (Homo sapiens, UniProt P13612+P26010).
T1 sequence (P13612 34-1032): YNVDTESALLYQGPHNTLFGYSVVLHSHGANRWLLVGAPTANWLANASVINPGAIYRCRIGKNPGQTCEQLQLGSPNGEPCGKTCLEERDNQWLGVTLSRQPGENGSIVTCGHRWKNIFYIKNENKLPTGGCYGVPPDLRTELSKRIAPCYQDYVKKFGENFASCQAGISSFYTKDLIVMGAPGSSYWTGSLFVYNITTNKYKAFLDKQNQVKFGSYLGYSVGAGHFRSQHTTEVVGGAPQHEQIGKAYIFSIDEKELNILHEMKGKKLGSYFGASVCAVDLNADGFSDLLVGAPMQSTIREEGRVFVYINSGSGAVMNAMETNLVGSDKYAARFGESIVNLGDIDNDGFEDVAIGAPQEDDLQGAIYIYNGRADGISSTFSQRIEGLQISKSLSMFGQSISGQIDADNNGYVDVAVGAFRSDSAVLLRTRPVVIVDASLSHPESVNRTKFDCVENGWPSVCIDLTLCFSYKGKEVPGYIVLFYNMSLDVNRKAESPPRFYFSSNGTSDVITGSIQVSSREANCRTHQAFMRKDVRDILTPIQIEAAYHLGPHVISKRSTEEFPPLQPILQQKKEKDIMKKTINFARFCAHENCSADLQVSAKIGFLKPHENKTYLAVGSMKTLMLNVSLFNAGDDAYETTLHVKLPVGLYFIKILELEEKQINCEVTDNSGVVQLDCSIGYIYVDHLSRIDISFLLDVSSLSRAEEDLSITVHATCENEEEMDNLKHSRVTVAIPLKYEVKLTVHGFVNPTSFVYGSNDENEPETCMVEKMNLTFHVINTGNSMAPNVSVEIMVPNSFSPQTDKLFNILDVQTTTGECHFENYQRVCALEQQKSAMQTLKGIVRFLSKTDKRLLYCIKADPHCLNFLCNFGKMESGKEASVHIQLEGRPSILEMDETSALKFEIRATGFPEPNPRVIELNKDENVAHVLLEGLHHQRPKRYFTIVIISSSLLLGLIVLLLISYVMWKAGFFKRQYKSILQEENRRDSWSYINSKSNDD
T1 sequence (P26010 20-798): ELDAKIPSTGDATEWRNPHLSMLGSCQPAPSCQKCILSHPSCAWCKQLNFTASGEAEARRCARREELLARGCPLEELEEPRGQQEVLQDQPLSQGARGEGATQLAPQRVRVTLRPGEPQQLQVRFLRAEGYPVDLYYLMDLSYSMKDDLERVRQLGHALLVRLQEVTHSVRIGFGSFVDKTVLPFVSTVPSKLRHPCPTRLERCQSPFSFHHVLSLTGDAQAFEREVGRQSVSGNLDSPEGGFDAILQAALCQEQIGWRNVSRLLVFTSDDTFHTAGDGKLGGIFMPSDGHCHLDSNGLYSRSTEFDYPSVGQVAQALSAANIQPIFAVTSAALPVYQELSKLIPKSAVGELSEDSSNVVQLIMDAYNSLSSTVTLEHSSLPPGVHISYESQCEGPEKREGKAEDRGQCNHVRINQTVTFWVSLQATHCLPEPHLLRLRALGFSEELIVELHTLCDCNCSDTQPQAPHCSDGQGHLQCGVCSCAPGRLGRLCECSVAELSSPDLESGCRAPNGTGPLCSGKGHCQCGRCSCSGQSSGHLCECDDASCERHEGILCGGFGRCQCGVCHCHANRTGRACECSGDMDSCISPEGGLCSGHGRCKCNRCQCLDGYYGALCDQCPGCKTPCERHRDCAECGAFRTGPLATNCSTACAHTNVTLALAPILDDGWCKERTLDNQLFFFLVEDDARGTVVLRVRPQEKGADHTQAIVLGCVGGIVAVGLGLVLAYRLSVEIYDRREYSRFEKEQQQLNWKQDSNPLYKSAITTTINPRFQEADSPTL
As to the kind of experiment: α4β7 integrin inhibition, IC50. It is filed as binding.

Structures are written as SMILES.

α4β1, sequence (P05556 21-798, one chain of several): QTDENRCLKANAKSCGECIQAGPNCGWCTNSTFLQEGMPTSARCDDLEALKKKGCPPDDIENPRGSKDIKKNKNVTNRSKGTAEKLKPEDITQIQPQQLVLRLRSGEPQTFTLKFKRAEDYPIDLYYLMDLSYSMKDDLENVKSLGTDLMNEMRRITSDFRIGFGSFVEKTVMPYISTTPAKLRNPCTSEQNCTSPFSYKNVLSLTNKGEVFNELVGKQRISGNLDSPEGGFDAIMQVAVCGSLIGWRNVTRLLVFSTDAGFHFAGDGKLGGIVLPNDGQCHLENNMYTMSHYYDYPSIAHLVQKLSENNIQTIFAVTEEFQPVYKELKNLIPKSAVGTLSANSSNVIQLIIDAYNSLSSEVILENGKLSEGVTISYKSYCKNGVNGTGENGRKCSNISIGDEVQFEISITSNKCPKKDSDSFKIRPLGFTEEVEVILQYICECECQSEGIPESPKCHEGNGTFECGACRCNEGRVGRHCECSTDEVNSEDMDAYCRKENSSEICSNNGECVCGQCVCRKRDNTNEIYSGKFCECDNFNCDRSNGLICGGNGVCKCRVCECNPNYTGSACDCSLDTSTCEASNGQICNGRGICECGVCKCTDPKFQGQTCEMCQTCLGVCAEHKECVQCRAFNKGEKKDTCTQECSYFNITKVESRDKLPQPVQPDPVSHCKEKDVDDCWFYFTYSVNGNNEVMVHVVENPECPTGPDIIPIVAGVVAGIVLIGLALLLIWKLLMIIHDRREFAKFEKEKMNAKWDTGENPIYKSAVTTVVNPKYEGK

As for `Cc1cc(-c2cccc(OC(F)(F)F)c2)cc([C@H](CC(=O)O)NC(=O)Nc2c(O)ccn(C)c2=O)c1` [1-572, sodium (S)-3-(5-methyl-3′-(trifluoromethoxy)biphenyl-3-yl)-3-(3-(1-methyl-4-oxido-2-oxo-1,2-dihydropyridin-3-yl)ureido)propanoate], the half-maximal inhibitory concentration (IC50) (usually the concentration that inhibits the measured activity by half) on α4β1 was below 20 nM; at α4β7 it was above 200 nM.
With `COc1cc(-c2c(C)cccc2C)cc([C@H](CC(=O)O)NC(=O)Nc2c(O)cc(C)n(C)c2=O)c1` [1-580, sodium (S)-3-(3-(1,6-dimethyl-4-oxido-2-oxo-1,2-dihydropyridin-3-yl)ureido)-3-(5-methoxy-2′,6′-dimethylbiphenyl-3-yl)propanoate], the IC50 on α4β1 and against α4β7 was below 20 nM in each case.
`Cn1ccc(O)c(NC(=O)N[C@@H](CC(=O)O)c2ccc(-c3ccc(F)cc3F)s2)c1=O` [1-562, sodium (S)-3-(5-(2,4-difluorophenyl)thiophen-2-yl)-3-(3-(1-methyl-4-oxido-2-oxo-1,2-dihydropyridin-3-yl)ureido)propanoate]: the results for the concentration for half-maximal inhibition (IC50) at α4β1 and against α4β7 were below 20 nM and above 200 nM, respectively.
Consider `Cc1cc(O)c(NC(=O)N[C@@H](CC(=O)O)c2cccc(-c3ccc(F)cc3F)c2)c(=O)n1C` [1-487, sodium (S)-3-(2′,4′-difluorobiphenyl-3-yl)-3-(3-(1,6-dimethyl-4-oxido-2-oxo-1,2-dihydropyridin-3-yl)ureido)propanoate], for which the results for the IC50 at α4β1 and at α4β7 were below 20 nM and above 200 nM, respectively.
Turning to `Cn1ccc(O)c(NC(=O)N[C@@H](CC(=O)O)c2cccc(-c3c(Cl)cccc3Cl)c2)c1=O` [1-537, sodium (S)-3-(2′,6′-dichlorobiphenyl-3-yl)-3-(3-(1-methyl-4-oxido-2-oxo-1,2-dihydropyridin-3-yl)ureido)propanoate], the figures for the 50% inhibitory concentration (IC50) at α4β1 and on α4β7 were below 20 nM and below 200 nM, respectively.
In the same order, the values of `Cc1cn(C)c(=O)c(NC(=O)N[C@@H](CC(=O)O)c2cccc(-c3c(C)cccc3C)c2)c1O` [1-470, sodium (S)-3-(3-(1,5-dimethyl-4-oxido-2-oxo-1,2-dihydropyridin-3-yl)ureido)-3-(2′,6′-dimethylbiphenyl-3-yl)propanoate] are below 20 nM and below 200 nM.
The corresponding values for `COc1cccc(-c2cc(C)cc([C@H](CC(=O)O)NC(=O)Nc3c(O)ccn(C)c3=O)c2)c1` [1-582, sodium (S)-3-(3′-methoxy-5-methylbiphenyl-3-yl)-3-(3-(1-methyl-4-oxido-2-oxo-1,2-dihydropyridin-3-yl)ureido)propanoate] are below 20 nM and below 200 nM.

The values are drawn from patent US10875875B2, “Propionic acid derivatives and methods of use thereof” (Aviara Pharmaceuticals, Inc., priority 2017, dated 2020).
